The numbers were not newly measured in patent US20250170254A1, “Subdermal Implant for Sustained Drug Delivery” (OAK CREST INSTITUTE OF SCIENCE, priority 2022, published 2025), which cites them from elsewhere.

The term IC50 denotes the concentration that inhibits the measured activity by half. Broadly, the IC90 is the concentration at which the effect reaches the 90% level.

In one data set the test system is HIV. The settings on record: four times the protein adjusted IC90 from non-human primate efficacy studies.
For data set [1], the system named is HIV-1. Particulars: long-acting injectable formulation.
For data set [2] the following is noted: 600 mg every 8 weeks, intramuscular long-acting formulation.
For data set [3], the system named is HIV-1. The settings on record: MDTG versus DTG.
Data set [4] relates to HIV-1.
For data set [5] the following is noted: in vivo.

Turning to `C[C@H]1CO[C@@H]2Cn3cc(C(=O)NCc4ccc(F)cc4F)c(=O)c(O)c3C(=O)N12` [CAB, cabotegravir], in the data set with HIV, the “target steady state plasma concentration (four times PA-IC90)” value was 0.66 µg/mL. Moreover, the “efficacy versus daily oral TDF-FTC in prevention of HIV-1” value with HIV-1 [1] is recorded as “superiority”. Also, in data set [2], the “participants with trough concentrations above 1×PA-IC90” value is on record as not below 95% and the “participants with trough concentrations above 4×PA-IC90” value is not below 80%.

For `CCCCCCCCCCCCCC(=O)Oc1c2n(cc(C(=O)NCc3ccc(F)cc3F)c1=O)C[C@@H]1OCC[C@@H](C)N1C2=O` [MDTG], in the data set with HIV-1 [3], the “IC50 against HIV-1 compared with DTG” value was “not statistically different”.

As for `C[C@@H]1CCO[C@H]2Cn3cc(C(=O)NCc4ccc(F)cc4F)c(=O)c(O)c3C(=O)N12` [DTG, dolutegravir], in the data set on HIV-1 [4] (in vitro against HIV-1, PBMCs, read-out: IC50 in peripheral blood mononuclear cells (PBMCs)), the half-inhibitory concentration (IC50) is 0.51 nM. The “protein-adjusted IC90 (PA-IC90)” value in the data set with HIV-1 [4] (in vitro against HIV-1, protein-adjusted, mass units) is 64 ng/mL. In addition, the IC90 in the data set on HIV-1 [4] (in vitro against HIV-1, protein-adjusted, read-out: protein-adjusted IC90 (PA-IC90)) is 150 nM. Further, the systemic half-life in data set [5] was 12 to 15 h.
